# Data published in patent US20190064129A1, “Systems And Methods To Determine Body Drug Concentration From An Oral Fluid” (Sterling Healthcare Opco, LLC, priority 2013, published 2019).
# Columns and labels:
# [1] = Oral fluid plasma equivalent calculation; type: in vivo, human
# From the text: (§1) Each donor provides simultaneous serum and oral fluid samples. The measured serum drug concentration is the LC-MS/MS response ratio of drug to internal standard determined from the individual's provided serum sample. The measured oral fluid drug concentration ratio is the LC-MS/MS response ratio of drug to internal standard determined from the individual's provided oral fluid sample. The oral fluid plasma equivalent is derived from the individual's measured oral fluid drug concentration, salivary pH, as well as various drug parameters referenced in literature.
# [formula] • S=Saliva drug concentration (ng/mL) • P=Plasma drug concentration (ng/mL) • pHs=pH of saliva (to be determined at the time of collection) • pHp=pH of plasma (assumed to be 7.4) • pKa=Dissociation constant of a drug (referenced in literature) • fp=Free fraction of drug in plasma (referenced in literature) • fs=Free fraction of drug in saliva (negligible; assumed to be 1)
# Once the S/P ratio for a drug is calculated using Eq. 5 or Eq. 6, oral fluid plasma equivalent is determined by […] the calculated S/P by the measured oral fluid drug concentration determined by LC/MS-MS quantitation, ultimately eliminating the necessity of directly analyzing blood samples to determine donor compliance.
# [2] = Drug pharmacokinetic parameters referenced in literature; type: in vivo; settings: drug clearance/Vd
# Procedure: Do=Original dosage taken Vd=Volume of distribution of drug (referenced in literature) times the kg body weight of donor C=Plasma drug concentration Ka=Absorption constant of drug (referenced in literature) Kel=Elimination constant of drug (referenced in literature) F=Bioavailability of drug (referenced in literature) t=Elapsed time between dosage and specimen collection
# Each donor's drug clearance rate is determined by multiplying the drugs clearance rate (referenced in literature) by the donor's weight (provided).
# Likewise, each donor's volume of distribution (DVd) is calculated by multiplying the drug volume of distribution (Vd) (referenced in literature) by the donor's weight (provided).
# [formula] • Css max=Steady state maximum concentration (ng/mL) • F=Fractional bioavailability • k=Fractional rate constant (drug clearance/Vd) • t=Dose frequency (hr) • DVd=Donor volume of distribution (reference Eq. 2)
# [formula] • Do=Original dose taken (mg) • DVd=Volume of distribution of donor (mL) (reference Eq. 2) • C=Plasma drug concentration (mg/mL) • Ka=Absorption constant of drug (referenced in literature) • Kel=Elimination constant of drug (referenced in literature) • F=Fractional bioavailability of drug (referenced in literature) • t=Elapsed time between dosage and specimen collection (fir)
# [3] = referenced in literature, cited from earlier work; for Kel: elimination constant
# [4] = tested on: plasma proteins; settings: free fraction in plasma, referenced in literature; cited from earlier work
# [5] = LC-MS/MS quantitation of drug in donor serum/plasma; type: in vivo, human
# From the text: (§2) Specimens may undergo a sample preparation step in advance of providing the sample to the drug concentration analysis engine, which involves extracting the analyte(s) of interest from biological matrices. This process serves to eliminate any biological material that could potentially affect analytical results. Samples are first treated to disrupt any drug matrix interactions (protein binding, conjugation) and then adjusted to a specific pH with a buffer. Analytes are then extracted from the remaining matrix using solid phase extraction module 206, which may be comprised of cartridges that are mixed-mode cationic exchange columns. This technique uses the specific binding of ionized drug molecules to the extraction cartridge packing material resulting in strong analyte retention within the column. A series of aqueous and organic wash steps may be used to assist in removing unwanted compounds and matrix components from the sample. Target analytes are then eluted from the solid phase extraction module 206, collected, and analyzed by identification module 208 that may be, for example, a liquid chromatography tandem mass spectrometry (LC/MS-MS) device, although other analysis devices are possible.
# In this exemplary embodiment, the specimens are analyzed by the identification module 208 that is a LC/MS-MS device, which allows for accurate and precise analyte identification and quantitation. This analytical technique uses a chromatographic system to separate all of the sample components into discrete peaks and sequentially identifies each compound through mass spectral identification. The chromatographic system is composed of a stationary phase of hydrophobic character (for example, octadecylsilane) and a mobile phase of varying polarity (for example, methanol, water). Specimens are injected into the chromatograph and pumped through the system by flow of the mobile phase. Separation is brought about by differential interactions with the stationary phase based on physical and chemical properties of the individual analytes. The end result is a separation of all of the sample components into discrete bands. As each component elutes from the liquid chromatograph it enters the mass spectrometer. The mass spectrometer is able to first determine an analytes specific molecular weight, called a precursor ion, and subsequently fragment the precursor ion into smaller fragments called product ions. The precursor ion and generated product ions are a specific marker of every analyte of interest. No two compounds will generate completely identical mass spectra. This allows for the identification module 208 to conclusively identify specimen components. Additionally, when specimens are analyzed alongside a series of standards of known concentration, a calibration curve can be generated and quantitative values of identified drugs can be determined.
# as §1
# [6] = LC-MS/MS quantitation of drug in donor oral fluid (saliva); type: in vivo, human
# From the text: With reference now to FIG. 1, an exemplary methodology 100 for collecting oral fluid will be described. First, the donor (sometimes referred to as subject, patient, person, or the like) is positioned to allow retrieval of the oral fluid sample, step 102. Next, an oral fluid collection device is placed in the donor's mouth, step 104. The collection device in one exemplary embodiment may be an absorbent swab placed under the tongue. One particularly useful collection device that has been developed is shown and described in FIG. 6. In this exemplary embodiment, the oral fluid collection device collects about 1 mL of neat oral fluid from the donor. Generally, the term about or approximately in the present application means within an acceptable tolerance, such as, for example, ±10% or the like. Volumetric collection is required for quantitative analysis when analyzed from a buffer solution. Oral fluid may be absorbed by the collection device by allowing saliva to move up the stem of a collection device via capillary action, step 106. When a sufficient amount of oral fluid is collected, the collection device provides indicia that the required collection amount has been collected, step 108. The indicia indicating the required volume is collected may be by a color change on a collection adequacy indicator or the like. Alternatively, an alpha/numeric display may be provided or an audio alert, such as a beep. Determining salivary pH is completed next or substantially at the same time as the required volume is collected, step 110. The pH of the oral fluid may be determined by a pH sensitive pigment or by other means including, for example, a sensor or the like. The pH indicia may be combined or separate from the indicia for volume and may include the same or different indicators. For example, the volume of the sample may be provided by a color strip whereas the pH may be provided by an audio. […] The pH will then be recorded or otherwise maintained for later use, step 112. In this exemplary embodiment, the donor will provide a sample by placing the collector swab under his or her tongue until the indicator changes color. The swab is then placed in 3 mL of oral fluid extraction buffer that promotes stabilization of the drug, preventing bacterial growth, and facilitates efficient extraction of the drugs and/or metabolites from the adsorbent swab, as is further explained below, step 114. Specimens may be aliquoted for analysis, and any remaining sample may be transferred to long-term storage at, for example, a storage temperature of between about −20 to about 0° C. The collected oral fluid may be referred to as a sample or a specimen interchangeably herein.
# as §2, with “possible. […]” for “possible.”
# [7] = Donor 0182, salivary pH 5.5, dose 5 mg every 6 hr, weight 68.554 kg
# [8] = Donor 0383, salivary pH 5.8, dose 10 mg every 4 hr, weight 68.10 kg
# [9] = Donor 0602, salivary pH 5.5, dose 5 mg every 12 hr, weight 163.44 kg
# [10] = Donor 0442, salivary pH 5.8, dose 100 mg every 8 hr, weight 89.890 kg
# [11] = Donor 0604, salivary pH 5.5, dose 50 mg every 8 hr, weight 81.720 kg
# [12] = Donor 0673, salivary pH 6.8, dose 50 mg every 6 hr, weight 105.782 kg
smiles,measurement,setting,value
COc1ccc2c3c1O[C@H]1C(=O)CC[C@H]4[C@@H](C2)N(C)CC[C@]314 [Hydrocodone],Hydrocodone Oral Fluid Plasma Equivalent,"[1]; Donor 0409, salivary pH 6, dose 5 mg every 6 hr, weight 67.646 kg",20.5 ng/mL
same,Oral Fluid Plasma Equivalent,"[1]; Donor 0476, salivary pH 7.2, 5.833 hr after last dose",4.5 ng/mL (reference Eq. 8)
same,Hydrocodone Oral Fluid Plasma Equivalent,"[1]; Donor 0704, salivary pH 6.6, dose 10 mg every 12 hr, weight 147.55 kg",60.5 ng/mL
same,Hydrocodone Oral Fluid Plasma Equivalent,"[1]; Donor 0897, salivary pH 7, dose 10 mg every 4 hr, weight 83.99 kg",10.1 ng/mL
same,Fractional Rate Constant; “k”,[2],0.132 h⁻¹
same,Ka,[3]; absorption constant,2.8 h⁻¹
same,Kel,[3],0.141 h⁻¹
same,Clearance,[3],0.529 L/h/kg
same,Fractional Bioavailability,[3],0.7
COc1ccc2c3c1O[C@H]1C(=O)CC[C@@]4(O)[C@@H](C2)N(C)CC[C@]314 [Oxycodone],Oxycodone Oral Fluid Plasma Equivalent,[1]; [7],7.5 ng/mL
same,Oxycodone Oral Fluid Plasma Equivalent,[1]; [8],11.3 ng/mL
same,Oral Fluid Plasma Equivalent (Calculated Plasma Concentration),"[1]; Donor 0565, salivary pH 6.4, 1.333 hr after last dose",42.0 ng/mL (reference Eq. 8)
same,Oxycodone Oral Fluid Plasma Equivalent,[1]; [9],24.1 ng/mL
same,concentration at 1.333 hr,"[1]; human, plasma (equivalent calculated from oral fluid), po, 1 mg, Donor 0565, salivary pH 6.4, 1.333 hr after last dose",0.042 µg/mL
same,Fractional Rate Constant; “k”,[2],0.372 h⁻¹
same,Kel,[3],0.174 h⁻¹
same,Clearance,[3],0.744 L/h/kg
same,Fractional Bioavailability,[3],0.735
same,Unbound Fraction (fp),[4],0.55
same,Measured Plasma Oxycodone Concentration,[5]; [7],7.9 ng/mL
same,Measured Plasma Oxycodone Concentration,[5]; [8],8.4 ng/mL
same,Measured Plasma Oxycodone Concentration,[5]; [9],16.7 ng/mL
same,concentration at 1.383 hr,"[5]; human, plasma, 1 mg, Donor 0565, weight 118.040 kg, 1.383 hr after last dose",0.0337 µg/mL
same,concentration at 6.05 hr,"[5]; human, plasma, 7.5 mg, Donor 0476, weight 84.898 kg, 6.050 hr after last dose, read-out: Measured Plasma Concentration",0.0032 µg/mL
same,Measured Saliva Oxycodone Concentration,[6]; [7],306.4 ng/mL
same,Measured Saliva Oxycodone Concentration,[6]; [8],230.2 ng/mL
same,Measured Saliva Oxycodone Concentration,[6]; [9],978.2 ng/mL
same,concentration at 1.333 hr,"[6]; human, oral fluid (saliva), po, 1 mg, Donor 0565, salivary pH 6.4, weight 118.040 kg, 1.333 hr after last dose, read-out: Measured Oral Fluid Concentration",0.217 µg/mL
COc1cccc(C2(O)CCCCC2CN(C)C)c1 (stereo not drawn) [Tramadol],Tramadol Oral Fluid Plasma Equivalent,[1]; [10],41.2 ng/mL
same,Tramadol Oral Fluid Plasma Equivalent,[1]; [11],475.5 ng/mL
same,Tramadol Oral Fluid Plasma Equivalent,[1]; [12],118.7 ng/mL
same,Fractional Rate Constant; “k”,[2],0.178 h⁻¹
same,Clearance,[3],0.480 L/h/kg
same,Fractional Bioavailability,[3],0.725
same,Volume of Distribution,[3],2.7 L/kg
same,Unbound Fraction (fp),[4],0.80
same,Measured Plasma Tramadol Concentration,[5]; [10],70.4 ng/mL
same,Measured Plasma Tramadol Concentration,[5]; [11],376.6 ng/mL
same,Measured Plasma Tramadol Concentration,[5]; [12],104.1 ng/mL
same,Measured Saliva Tramadol Concentration,[6]; [10],1302.5 ng/mL
same,Measured Saliva Tramadol Concentration,[6]; [11],29926.5 ng/mL
same,Measured Saliva Tramadol Concentration,[6]; [12],375.6 ng/mL
